Our source for the inhibition values is ChEMBL document CHEMBL2007661, “Compounds: GSK PKIS; Assays: UNC Frye lab” (2012).

Several values for one entry are separate records, joined by “and”; a condition that tells them apart may be missing. Equal values may be shown once.

Test [1] concerns the target T1, Inhibitor of nuclear factor kappa-B kinase subunit alpha (Homo sapiens) (UniProt O15111).
T1 sequence (whole entry): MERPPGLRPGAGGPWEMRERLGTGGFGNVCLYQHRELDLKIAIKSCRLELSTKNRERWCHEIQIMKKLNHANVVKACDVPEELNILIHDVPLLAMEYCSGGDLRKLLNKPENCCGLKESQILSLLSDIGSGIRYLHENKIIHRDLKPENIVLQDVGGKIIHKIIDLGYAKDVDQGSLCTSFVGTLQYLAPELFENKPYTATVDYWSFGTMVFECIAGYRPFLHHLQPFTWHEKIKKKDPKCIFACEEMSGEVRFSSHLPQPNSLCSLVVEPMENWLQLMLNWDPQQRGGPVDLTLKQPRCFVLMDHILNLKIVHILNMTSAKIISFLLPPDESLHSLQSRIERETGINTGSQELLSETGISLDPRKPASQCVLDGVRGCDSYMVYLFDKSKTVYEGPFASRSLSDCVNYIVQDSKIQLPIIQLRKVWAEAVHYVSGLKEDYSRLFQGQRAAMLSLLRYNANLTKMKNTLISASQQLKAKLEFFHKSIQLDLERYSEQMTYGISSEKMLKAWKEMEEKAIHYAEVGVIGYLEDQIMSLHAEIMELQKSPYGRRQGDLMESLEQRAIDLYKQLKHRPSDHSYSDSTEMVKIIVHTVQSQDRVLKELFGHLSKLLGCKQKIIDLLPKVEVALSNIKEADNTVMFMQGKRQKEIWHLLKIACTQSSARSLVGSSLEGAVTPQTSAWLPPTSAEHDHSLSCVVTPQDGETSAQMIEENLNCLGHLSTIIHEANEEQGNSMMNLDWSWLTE
Conditions: at 1 µM.

The target in test [2] is T2, Inhibitor of nuclear factor kappa-B kinase subunit beta (Homo sapiens) (UniProt O14920).
T2 sequence (whole entry): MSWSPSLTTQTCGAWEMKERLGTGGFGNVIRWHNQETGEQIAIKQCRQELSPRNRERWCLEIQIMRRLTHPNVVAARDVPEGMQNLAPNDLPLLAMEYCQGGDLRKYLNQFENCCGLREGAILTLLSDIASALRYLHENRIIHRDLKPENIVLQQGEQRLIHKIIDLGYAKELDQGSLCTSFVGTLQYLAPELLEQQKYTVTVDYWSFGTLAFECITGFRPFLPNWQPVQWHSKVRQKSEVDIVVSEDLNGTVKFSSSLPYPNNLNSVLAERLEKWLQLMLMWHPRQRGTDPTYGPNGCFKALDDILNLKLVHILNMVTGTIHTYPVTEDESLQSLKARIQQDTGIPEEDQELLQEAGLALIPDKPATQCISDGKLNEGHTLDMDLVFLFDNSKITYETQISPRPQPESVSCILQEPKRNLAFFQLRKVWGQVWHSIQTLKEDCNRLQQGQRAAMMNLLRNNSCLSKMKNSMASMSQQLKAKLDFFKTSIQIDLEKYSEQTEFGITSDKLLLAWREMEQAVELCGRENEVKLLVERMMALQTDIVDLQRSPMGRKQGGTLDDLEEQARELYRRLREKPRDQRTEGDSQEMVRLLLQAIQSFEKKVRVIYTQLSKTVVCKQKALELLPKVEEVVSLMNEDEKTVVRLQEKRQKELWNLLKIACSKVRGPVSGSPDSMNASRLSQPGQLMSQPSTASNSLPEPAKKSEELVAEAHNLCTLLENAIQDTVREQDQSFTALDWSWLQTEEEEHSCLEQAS
Conditions: at 1 µM.

In test [3] the target is T3, Inhibitor of nuclear factor kappa-B kinase subunit epsilon (Homo sapiens) (UniProt Q14164).
T3 sequence (whole entry): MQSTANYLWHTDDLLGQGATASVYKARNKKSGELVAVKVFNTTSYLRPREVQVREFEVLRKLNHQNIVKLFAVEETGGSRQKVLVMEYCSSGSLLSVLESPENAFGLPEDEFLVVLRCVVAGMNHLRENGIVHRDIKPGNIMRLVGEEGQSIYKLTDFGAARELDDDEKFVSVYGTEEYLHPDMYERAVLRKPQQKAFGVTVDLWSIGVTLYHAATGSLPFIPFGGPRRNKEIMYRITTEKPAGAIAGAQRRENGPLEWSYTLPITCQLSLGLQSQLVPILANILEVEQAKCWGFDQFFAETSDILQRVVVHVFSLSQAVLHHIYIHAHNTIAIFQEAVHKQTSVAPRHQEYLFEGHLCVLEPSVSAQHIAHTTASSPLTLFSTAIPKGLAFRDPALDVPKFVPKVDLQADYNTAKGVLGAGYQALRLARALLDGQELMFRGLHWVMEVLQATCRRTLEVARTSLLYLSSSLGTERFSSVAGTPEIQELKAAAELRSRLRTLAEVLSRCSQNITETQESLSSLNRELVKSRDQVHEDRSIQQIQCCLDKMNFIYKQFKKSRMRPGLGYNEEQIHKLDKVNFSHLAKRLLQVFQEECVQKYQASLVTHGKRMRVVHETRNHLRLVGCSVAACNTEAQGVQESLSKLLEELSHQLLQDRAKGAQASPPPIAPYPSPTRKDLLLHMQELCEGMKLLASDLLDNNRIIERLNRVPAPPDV
Conditions: at 1 µM.

In test [4] the target is T4, Serine/threonine-protein kinase TBK1 (Homo sapiens) (UniProt Q9UHD2).
T4 sequence (whole entry): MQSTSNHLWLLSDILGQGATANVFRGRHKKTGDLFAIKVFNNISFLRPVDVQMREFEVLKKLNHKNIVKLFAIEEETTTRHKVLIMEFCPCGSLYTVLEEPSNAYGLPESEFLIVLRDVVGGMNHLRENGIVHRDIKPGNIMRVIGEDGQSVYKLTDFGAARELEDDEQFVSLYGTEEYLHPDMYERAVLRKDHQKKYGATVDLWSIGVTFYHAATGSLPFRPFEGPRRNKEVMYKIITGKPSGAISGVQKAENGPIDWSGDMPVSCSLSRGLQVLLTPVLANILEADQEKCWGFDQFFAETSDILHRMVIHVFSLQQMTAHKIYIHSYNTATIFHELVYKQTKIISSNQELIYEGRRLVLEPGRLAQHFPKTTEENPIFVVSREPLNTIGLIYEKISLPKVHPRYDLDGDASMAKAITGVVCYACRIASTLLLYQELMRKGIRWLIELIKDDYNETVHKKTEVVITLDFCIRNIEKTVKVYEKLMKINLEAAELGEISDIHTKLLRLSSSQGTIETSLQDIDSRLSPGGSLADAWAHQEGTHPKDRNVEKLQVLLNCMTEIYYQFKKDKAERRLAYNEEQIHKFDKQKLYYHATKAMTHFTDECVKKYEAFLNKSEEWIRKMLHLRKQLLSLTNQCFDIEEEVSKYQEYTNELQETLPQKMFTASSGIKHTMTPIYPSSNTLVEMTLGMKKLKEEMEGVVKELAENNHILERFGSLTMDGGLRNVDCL
The conditions noted are these: at 1 µM.

Test [5] deals with T5, Tyrosine-protein kinase Mer (Homo sapiens) (UniProt Q12866).
T5 sequence (whole entry): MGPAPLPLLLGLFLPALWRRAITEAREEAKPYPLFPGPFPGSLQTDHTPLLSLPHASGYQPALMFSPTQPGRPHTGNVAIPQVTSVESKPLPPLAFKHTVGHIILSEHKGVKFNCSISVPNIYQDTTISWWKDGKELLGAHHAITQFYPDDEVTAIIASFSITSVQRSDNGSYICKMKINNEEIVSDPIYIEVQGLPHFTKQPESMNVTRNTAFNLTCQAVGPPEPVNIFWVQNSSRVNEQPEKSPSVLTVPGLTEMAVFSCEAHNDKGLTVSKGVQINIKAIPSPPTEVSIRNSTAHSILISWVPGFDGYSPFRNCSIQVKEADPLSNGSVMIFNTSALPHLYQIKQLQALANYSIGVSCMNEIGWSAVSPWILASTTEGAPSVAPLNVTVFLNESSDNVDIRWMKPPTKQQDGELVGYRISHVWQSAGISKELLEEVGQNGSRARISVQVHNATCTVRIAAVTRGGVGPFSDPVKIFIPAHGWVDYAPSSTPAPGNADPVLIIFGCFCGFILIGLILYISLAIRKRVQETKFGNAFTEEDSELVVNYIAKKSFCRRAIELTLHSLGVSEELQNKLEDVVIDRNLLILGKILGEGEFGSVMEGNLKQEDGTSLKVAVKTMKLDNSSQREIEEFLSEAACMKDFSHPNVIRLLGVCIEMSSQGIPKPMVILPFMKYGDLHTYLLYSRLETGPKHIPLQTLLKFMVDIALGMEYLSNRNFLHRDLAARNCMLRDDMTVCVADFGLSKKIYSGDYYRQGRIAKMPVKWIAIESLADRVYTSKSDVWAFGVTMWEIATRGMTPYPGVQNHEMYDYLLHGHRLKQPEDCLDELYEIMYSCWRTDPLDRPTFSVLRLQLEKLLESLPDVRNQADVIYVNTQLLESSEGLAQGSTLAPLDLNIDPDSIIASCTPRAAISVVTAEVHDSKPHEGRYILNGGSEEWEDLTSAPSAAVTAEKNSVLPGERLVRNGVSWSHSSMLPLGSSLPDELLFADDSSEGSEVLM
Conditions: at 10 µM.

In general, inhibition refers to the drop in the measured response relative to a control, in per cent. Turning to `Cc1ccc(NC(=O)CC2CC2)cc1-c1ccc(C(=O)NCC2CC2)cc1`, the inhibition in test [1] was 1% and 0%; in test [2] it was -2% and -1%; in test [3], 0%; in test [4] it was -1% and 1%.

Regarding `Nc1nccc(-c2c(-c3ccc(F)cc3)ncn2C2CCNCC2)n1`, the inhibition in test [1] is 4% (2×) and 5% and 3%; in test [2], -4% and -5%; in test [3], 1% [middle of 4 runs]; in test [4], 0% [middle of 4 runs].

Consider `[O-][S+]1CCN(Cc2ccc(-c3ccc4ncnc(Nc5ccc(OCc6ccccc6)c(F)c5)c4c3)o2)CC1`, for which the inhibition in test [1] was 5%; in test [2], -4% and -10%; in test [3], 1%; in test [4] it was 5% and 2%.

Regarding `N#Cc1cccc(Nc2nccc(-c3cnn4ncccc34)n2)c1`, the inhibition in test [1] is -9%; in test [2] it was -4% and 0%; in test [3], 35% and 37%; in test [4], 37% and 39%.

Consider `C[C@@H](Oc1cc(-n2cnc3ccc(OCC4CCN(C)CC4)cc32)sc1C(N)=O)c1ccccc1Cl`, for which the inhibition is -10% and 3% in test [1]; 3% in test [3]; 55% in test [5]; 6% and 8% in test [4].

`COC(=O)Nc1nc2ccc(Oc3ccc(NC(=O)Nc4cc(C(F)(F)F)ccc4F)cc3)cc2s1`: the inhibition in test [1] was 5% and 4%; in test [2] it was -4% and -8%; in test [3], -4% and -6%; in test [4], -5% and -3%.

`CCS(=O)(=O)c1ccc(OC)c(Nc2ncc(-c3cccc(C(C)=O)c3)o2)c1`: the inhibition in test [1] is -1%; in test [3], 1%; in test [5] it was 65%; in test [4] it was 7% and 5%.

On to `O=C(Nc1n[nH]c2nc(-c3ccco3)ccc12)C1CC1`, for which the inhibition in test [1] is 7% and 6%; in test [2], -6%; in test [3] it was 0%; in test [4], 4% and 3%.

`Fc1ccc(-c2nn3ncccc3c2-c2ccnc(Nc3ccc4c(c3)OCCO4)n2)cc1`: the inhibition is -2% and -4% in test [2]; 12% and 9% in test [3]; 4% and -2% in test [4].

Regarding `Fc1cccc(COc2ccc(Nc3ncnc4cc(-c5ccc[nH]5)sc34)cc2Cl)c1`, the inhibition is 60% and 64% in test [1]; 3% and 2% in test [2]; -1% in test [3]; 0% and -4% in test [4].

As to `NS(=O)(=O)c1ccc(N/C=C2\C(=O)Nc3ccc4ncsc4c32)cc1`, the inhibition was -3% and -2% in test [1]; -4% and -5% in test [2]; -8% and -9% in test [3]; 85% and 86% in test [4].

Turning to `c1cc(-c2cnn3nc(N4CCOCC4)ccc23)nc(NC2CC2)n1`, the inhibition in test [1] was -2% and -3%; in test [3], 5% and 6%; in test [5] it was -4%; in test [4], 5% and 6%.

With `CCS(=O)(=O)c1ccc(OC)c(Nc2ncc(-c3cccc(F)c3)o2)c1`, the inhibition in test [1] was 2% and 17%; in test [3], 0% and 2%; in test [5], 73%; in test [4] it was 8% and 7%.

Turning to `Nc1ncnc2occ(-c3ccc(NC(=O)Nc4cc(C(F)(F)F)ccc4F)cc3)c12`, the inhibition was 2% [middle of 4 runs] in test [1]; -7% and -4% in test [2]; 12% [middle of 4 runs] in test [3]; -1% (2×) and 2% and 1% in test [4].

In the case of `Clc1ccc(-c2nn3ncccc3c2-c2ccnc(Nc3ccccc3)n2)cc1`, the inhibition in test [1] is 50%; in test [3], 0% and 1%; in test [5] it was -9%; in test [4] it was -2% and -3%.

With `COc1cccc(Nc2nccc(-c3cnn4ncccc34)n2)c1`, the inhibition in test [1] was 0% and 2%; in test [3] it was 11% and 20%; in test [5], 98%; in test [4] it was 24% and 31%.
